Results reported in publication PMC6274259, “New 3-Cyano-2-Substituted Pyridines Induce Apoptosis in MCF 7 Breast Cancer Cells” (Molecules, 2016).

How the values were obtained:
MCF-7 cells [1] = assay: Flow cytometric cell cycle analysis (PI staining); assay type: cell-based, human; details: 2 μM, 24 h; control group 37%
Procedure: Flow cytometry is considered one of the specific tools for the investigation of molecular and morphological events occurring during cell death and cell proliferation. Therefore, the effect of compound 9a on cell cycle progression was studied by flow cytometry in propidium iodide (PI) stained cells. The percent of cells in G1, S, G2 phases was determined after treating cells with 2 μM of 9a for 24 h (Figure 4D). […] Thus, it can be concluded that compound 9a inhibits the proliferation of MCF-7 cells and the growth inhibition is associated with induction of G1 phase arrest. p27 is considered as an important regulator of cell cycle. To determine whether compound 9a-induced G1 arrest was associated with increased p27 level, and to study the effect on the expression of CDK2 and CDK4 involved in cell cycle progression, cells were analyzed for the expression of these proteins using western blot analysis after treatment with 2 μM of 9a for 24 h.
MCF-7 cells were seeded in 25 cm^2 flasks until reaching the desirable confluence of 1 million cells and media was changed to media containing compound 9a (2 μM). After 24 h incubation, the cells were harvested by trypsinization to detach the cells without affecting the integrity of the cell membrane. The cells were incubated with PI for 5 min at room temperature, washed twice with PBS and […]. […]

MCF-7 cells [2] = assay: Enzyme linked immunosorbent apoptosis assay (Cell Death Detection ELISA PLUS); assay type: cell-based, human
Procedure: Compound 9a was further investigated for induction of apoptosis in MCF-7 cells using Cell Death Detection ELISA^PLUS which is used for the quantitative in vitro determination of cytoplasmic histone-associated DNA fragments (mono- and oligonucleosomes) in apoptosing cells.
Cells were seeded at a density of 2 × 10^4/ well in a 96-well plate and incubated for 24 h. […] An ELISA assay was performed using Cell Death Detection ELISA PLUS kit (Roche-Applied Science, Indianapolis, IN, USA) for the quantitative in vitro determination of cytoplasmic histone-associated DNA fragments (mono- and oligonucleosomes) in apoptosing cells. Briefly, cells were lysed with 200-μL lysis buffer for 30 min at room temperature. The lysate was centrifuged at 200 g for 10 min. 150 μL of supernatant was collected, of which 20 μL was incubated with anti-histone biotin and anti-DNA peroxidase at room temperature for 2 h. After washing with incubation buffer three times, 100 μL of substrate solution (2,2′-azino-di(3-ethylbenzthiazolinsulphonic acid) was added to each well and incubated for 15–20 min at room temperature. The absorbance was measured using an ELISA reader (Spectra Max Plus) at 405 nm. The control group was cells without compounds treatment. Each assay was done in triplicate and the standard deviation was determined.

[3] = system: MCF-7 human breast adenocarcinoma cell line; assay: WST-1 cell viability assay, MCF-7; assay type: cell-based; details: for IC50: WST-1, 24 h treatment, mean ± S.D of three independent experiments
Source text: (§1) The synthesized compounds were screened for their cytotoxicity on five cancer cell lines, namely SK-OV-3, MCF-7, MDA-MB-231, HCT-116 and RKO, using a WST colorimetric assay. The assay principle is based upon the reduction of the tetrazolium salt WST-1 to formazan by cellular mitochondrial dehydrogenases present in viable cells. […] Among the latter compounds the benzohydrazide derivative 9a emerged with the lowest IC50 in this study against MCF-7 cells compared to 5-FU. […] Based on the fact that 9a had less cytotoxic effects on normal breast epithelial cells it was subjected to further studies.
(§2) The following cell lines were used for the screening stage, obtained from the American Type Culture Collection (ATCC, Manassas, VA, USA); SK-OV-3 (HTB-77), MCF-12A (ATCC CRL-10782), MDA-MB-231 (ATCC HTB-26), HCT-116 (CCL-247), RKO (CRL-2577) and sub-culturing of the above cell lines was conducted in 75 cm^2 flasks. The old culture media was removed and discarded after assessing the confluency of the cells and the cells were rinsed with 2–3 mL diluted trypsin (1×) (trypsin/EDTA solution consists of 0.025% trypsin and 0.01% EDTA in PBS), for about 5 minutes for complete detachment. The cells were observed under the inverted microscope until the cell layer is completely dispersed. 75 cm^2 flasks were prepared and 16 mL of DMEM media for SK-OV-3, MCF-7, MDA-MB-231, (DMEM 4500 mg glucose) and RPMI media for HCT-116 were added to each flask. The cells were aspirated gently and added to the flasks. DMEM 4500 mg/L high glucose with 10% FBS, 5% streptomycin and penicillin, RPMI 1640 (prepared by adding 5% heat-inactivated FCS and 2 mm glutamine) were used. DMEM was also used for MCF-12A cells with the addition of human epidermal growth factor 20 ng/mL, insulin 0.01 mg/mL and hydrocortisone 500 ng/mL.
(§3) The synthesized compounds were screened for their anti-proliferative activity using 5-FU (F6627-1G, Sigma-Aldrich, St. Louis, MO, USA) as reference compound. A concentration of 0.4% DMSO was used in all experiment after ensuring 100% viability of the cell lines with this concentration. A 25 mM stock concentration of all compounds was prepared for further studies and analysis.
(§4) Cells were trypsinized and placed in a 15 mL Falcon tube, the cells were centrifuged for 3 min at 1000 rpm. Trypsin is decanted using a sterile pipette and then the pellet is loosened by flicking the tube few times then 5–10 mL warm DMEM or RPMI were added to the Falcon tube and the pellet is resuspended. Cell count was done next by taking 10 μL of the suspension into the cell counting slide and read under 10× cells/mL. A cell stock of 50,000 cells/mL was prepared for the 96 wells. Cells (100 μL) were added to each well using a sterile pipette each time to ensure consistency. The experiment was planned ahead of time using excel sheet, 3–6 wells were reserved as blank media while 3–6 wells for vehicle (DMSO). The plate was incubated for 24 h for compound treatment step. DMEM media was used to prepare different dilutions of the compounds. The old DMEM media was removed from the wells using sterile pipette in the hood and the media was replaced with 100 μL media with each compound. The plate was incubated for 24 h. After 24 h incubation, WST-1 reagent (Sigma) was added to each well and then the plate was incubated for 1 h before measuring the absorbance using VICTOR™ Multilabel Plate Reader (Perkin Elmer, Beaconsfield, UK). The absorbance of the colored solution can be quantified by measuring at a certain wavelength (usually between 500–600 nm), in this experiment the first reading was conducted at 540 nm and the second reading at 690 nm for the reference wavelength. The percentage of cell viability was determined as the ratio of the absorbance of the sample vs the control. Three independent experiments were performed. […] 5-Florouracil (Sigma-Aldrich, F6627-1G) was used as reference standard.

[4] = system: RKO human colon carcinoma cell line; assay: WST-1 cell viability assay, RKO; assay type: cell-based; details: Homo sapiens, Colon carcinoma cell; WST-1, 24 h treatment, mean ± S.D of three independent experiments
Source text: as §1, §2, §3, §4

IC50 ([3]; Homo sapiens, MCF7, 24 h): 2 µM
IC50 [3]: 2.04 ± 0.13 µM
IC50 [4]: 8.22 ± 0.99 µM
Structure (SMILES): COc1ccc(-c2cc(-c3ccc(OC)c(OC)c3)c(C#N)c(OCC(=O)NNC(=O)c3ccccc3)n2)cc1OC [Compound 9a, N'-[2-(3-cyano-4,6-bis(3,4-dimethoxyphenyl)pyridin-2-yloxy)acetyl]benzohydrazide]
percent of G1 population (MCF-7 cells [1]): 54%
induction of apoptosis, concentration dependence (MCF-7 cells [2]; 0.1 to 4 μM): increased in a dose dependent fashion
induction of apoptosis, exposure time with optimum value (MCF-7 cells [2]; exposure 3 h to 48 h): 24 h
viability at 2 µM ([3]; Homo sapiens, MCF7, 2 μM, 24 h, WST-1, read-out: cell viability in MCF-7 cells): ~50%
